In article PMC13006724 (Clinical Pharmacology in Drug Development, 2026) one finds AUC0-inf data, which are given here for one compound.

For this data set the following is noted: human, in vivo, 400 mg. The procedure:
Urine PK parameters included cumulative urinary excretion from time zero to time t (Ae0‐t), maximum rate of urinary excretion (Rmax), time of maximum rate of urinary excretion (TRmax), and renal clearance (Clr). PK analyses were performed using Phoenix WinNonlin version 8.0, which was validated by Syneos Health.

Structures are written as SMILES.

As for `COc1c(N2C[C@@H]3CCCN[C@@H]3C2)c(F)cc2c(=O)c(C(=O)O)cn(C3CC3)c12` [Moxifloxacin], the AUC0-inf is listed as 28327.2 (4616.5) h*ng/mL.
